Measurements: ChEMBL document CHEMBL1201862, “PubChem BioAssay data set” (2004)
Activity calls are given as the source filed them.

What was measured:
[1] = biological target: Serine/threonine-protein phosphatase PP1-alpha catalytic subunit (Homo sapiens, UniProt P62136); test: PP1 phosphatase inhibitors, dose response, biochemical, fluorescence (AID 2394)
[2] = biological target: T1, Sentrin-specific protease 8 (Homo sapiens, UniProt Q96LD8); assay type: functional;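 note: luminescence read-out of SENP8 inhibition, dose-response confirmation following an ultra-high-throughput screen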
T1 sequence (Q96LD8 whole entry): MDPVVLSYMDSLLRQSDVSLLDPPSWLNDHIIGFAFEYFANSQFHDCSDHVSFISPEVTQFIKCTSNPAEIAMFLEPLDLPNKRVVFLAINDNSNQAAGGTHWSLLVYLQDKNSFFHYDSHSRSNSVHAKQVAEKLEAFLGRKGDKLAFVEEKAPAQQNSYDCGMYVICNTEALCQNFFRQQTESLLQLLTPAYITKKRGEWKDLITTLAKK

[3] = biological target: Intestinal-type alkaline phosphatase (Mus musculus, UniProt P24822); test: PubChem AID 488785; assay type: functional
[4] = biological target: T2, Alkaline phosphatase, tissue-nonspecific isozyme (Homo sapiens, UniProt P05186); test: TNAP enzyme inhibition by screening hits, dose response, selectivity assay for mouse IAP inhibitor project, biochemical, human TNAP, uHTS hits (AID 488906); assay type: functional
T2 sequence (P05186 whole entry): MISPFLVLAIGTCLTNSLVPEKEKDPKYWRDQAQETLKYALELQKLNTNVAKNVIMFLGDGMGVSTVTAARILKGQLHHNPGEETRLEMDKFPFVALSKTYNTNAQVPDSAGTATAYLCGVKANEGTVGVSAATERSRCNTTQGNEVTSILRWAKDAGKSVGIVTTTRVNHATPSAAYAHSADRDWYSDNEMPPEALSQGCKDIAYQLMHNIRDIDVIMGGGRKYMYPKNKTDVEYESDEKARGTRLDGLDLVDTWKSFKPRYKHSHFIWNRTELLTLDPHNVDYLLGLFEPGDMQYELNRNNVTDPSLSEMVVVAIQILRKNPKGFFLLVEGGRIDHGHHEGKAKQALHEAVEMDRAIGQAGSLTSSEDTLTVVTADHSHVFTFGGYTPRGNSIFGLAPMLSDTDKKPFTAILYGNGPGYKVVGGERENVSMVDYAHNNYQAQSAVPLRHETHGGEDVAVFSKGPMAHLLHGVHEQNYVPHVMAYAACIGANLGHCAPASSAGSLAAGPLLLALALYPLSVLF

[5] = biological target: T3, Caspase-3 (Homo sapiens, UniProt P42574); test: SAR Analysis of small molecule inhibitors of Sentrin-specific proteases (SENPs) using a Caspase-3 Selectivity assay. [Related pubchem assays (depositor defined):AID2540, AID2599, AID434973, AID489001]; assay type: functional
T3 sequence (P42574 whole entry): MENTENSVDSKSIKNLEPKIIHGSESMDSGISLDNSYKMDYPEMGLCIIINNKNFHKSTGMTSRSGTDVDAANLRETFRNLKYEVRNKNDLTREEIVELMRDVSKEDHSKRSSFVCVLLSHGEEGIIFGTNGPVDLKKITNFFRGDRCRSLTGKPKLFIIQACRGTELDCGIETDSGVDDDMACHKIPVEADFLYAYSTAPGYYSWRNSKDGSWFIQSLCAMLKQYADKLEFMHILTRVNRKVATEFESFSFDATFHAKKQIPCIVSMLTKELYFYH

[6] = cytotoxicity toward DRD oncogenic fibroblasts, dose response, cell-based, non-viral oncogenic, luminescence (AID 1934); assay type: functional; conditions: Homo sapiens
[7] = biological target: T4, Heat shock factor protein 1 (Mus musculus, UniProt P38532); test: HSF1 potentiators in luciferase reporter cells, confirmation, cell-based, NIH3T3, luminescence, dose retest (AID 435004); assay type: functional;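 note: stress induced by proteasome inhibitor MG132 added 30 min after compound; luciferase reporter driven by HSF1 response element in NIH3T3 cells; actives raise luminescence as potentiators of the MG132 stress response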
T4 sequence (P38532 whole entry): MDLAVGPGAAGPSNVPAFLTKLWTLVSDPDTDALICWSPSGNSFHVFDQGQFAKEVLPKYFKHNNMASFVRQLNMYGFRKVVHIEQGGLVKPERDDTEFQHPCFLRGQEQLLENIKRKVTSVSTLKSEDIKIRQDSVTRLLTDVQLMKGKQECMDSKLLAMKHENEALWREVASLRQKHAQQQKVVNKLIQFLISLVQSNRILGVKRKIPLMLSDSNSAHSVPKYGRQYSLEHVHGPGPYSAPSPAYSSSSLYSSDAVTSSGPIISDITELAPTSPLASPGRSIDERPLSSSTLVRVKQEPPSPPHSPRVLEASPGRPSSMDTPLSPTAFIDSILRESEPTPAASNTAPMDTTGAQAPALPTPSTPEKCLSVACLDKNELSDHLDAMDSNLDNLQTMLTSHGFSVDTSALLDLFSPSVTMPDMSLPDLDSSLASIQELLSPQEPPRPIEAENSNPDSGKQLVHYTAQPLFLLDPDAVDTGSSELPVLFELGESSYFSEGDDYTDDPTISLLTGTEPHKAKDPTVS

[8] = biological target: T5, Replicative DNA helicase DnaB (Mycobacterium tuberculosis, UniProt P9WMR3); test: DnaB intein splicing inhibitors, dose response, biochemical, cell-free fluorescence (AID 449749); assay type: functional
T5 sequence (P9WMR3 whole entry): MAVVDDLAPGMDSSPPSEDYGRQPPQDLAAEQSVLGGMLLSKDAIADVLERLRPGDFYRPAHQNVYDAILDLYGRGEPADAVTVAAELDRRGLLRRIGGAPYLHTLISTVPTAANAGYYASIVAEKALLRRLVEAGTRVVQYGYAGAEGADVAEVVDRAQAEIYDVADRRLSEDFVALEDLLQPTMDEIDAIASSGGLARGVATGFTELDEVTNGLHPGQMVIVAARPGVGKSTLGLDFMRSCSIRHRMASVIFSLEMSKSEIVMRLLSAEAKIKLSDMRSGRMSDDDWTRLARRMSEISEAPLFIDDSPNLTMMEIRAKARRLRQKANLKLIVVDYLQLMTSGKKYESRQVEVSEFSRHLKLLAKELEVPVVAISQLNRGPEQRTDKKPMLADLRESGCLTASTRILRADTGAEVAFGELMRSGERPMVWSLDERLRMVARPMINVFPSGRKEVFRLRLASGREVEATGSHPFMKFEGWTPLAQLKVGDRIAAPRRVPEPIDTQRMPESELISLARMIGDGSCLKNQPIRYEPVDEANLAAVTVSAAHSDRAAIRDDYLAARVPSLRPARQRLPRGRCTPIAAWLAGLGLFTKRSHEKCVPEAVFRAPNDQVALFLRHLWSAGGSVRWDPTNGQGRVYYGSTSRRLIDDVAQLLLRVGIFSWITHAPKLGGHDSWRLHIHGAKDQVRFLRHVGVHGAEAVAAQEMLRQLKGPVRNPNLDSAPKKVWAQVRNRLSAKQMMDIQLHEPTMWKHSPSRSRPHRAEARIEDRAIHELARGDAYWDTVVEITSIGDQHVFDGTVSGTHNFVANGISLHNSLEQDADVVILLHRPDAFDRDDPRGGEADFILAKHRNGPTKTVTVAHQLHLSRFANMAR

[9] = tested on: BJ; test: cytotoxicity toward Ras-transformed BJeLR fibroblasts, dose response, cell-based, alamar blue fluorescence, cherrypicked samples (AID 2631); assay type: functional; conditions: Homo sapiens;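 note: confirmatory dose-response assay in RAS-dependent BJ fibroblasts engineered with TERT, LT and ST, with cytotoxicity read by fluorescence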
[10] = SNU-C1 cell viability reduction, dose response, CellTiter-Glo luminescence (AID 1117323); assay type: functional, cell-based
[11] = HCT116 cell viability decrease, GSK3B pretreatment – CellTiter-Glo, IC50, dose response (AID 1117339); assay type: functional; conditions: HCT-116

Intestinal-type alkaline phosphatase, sequence (P24822 whole entry): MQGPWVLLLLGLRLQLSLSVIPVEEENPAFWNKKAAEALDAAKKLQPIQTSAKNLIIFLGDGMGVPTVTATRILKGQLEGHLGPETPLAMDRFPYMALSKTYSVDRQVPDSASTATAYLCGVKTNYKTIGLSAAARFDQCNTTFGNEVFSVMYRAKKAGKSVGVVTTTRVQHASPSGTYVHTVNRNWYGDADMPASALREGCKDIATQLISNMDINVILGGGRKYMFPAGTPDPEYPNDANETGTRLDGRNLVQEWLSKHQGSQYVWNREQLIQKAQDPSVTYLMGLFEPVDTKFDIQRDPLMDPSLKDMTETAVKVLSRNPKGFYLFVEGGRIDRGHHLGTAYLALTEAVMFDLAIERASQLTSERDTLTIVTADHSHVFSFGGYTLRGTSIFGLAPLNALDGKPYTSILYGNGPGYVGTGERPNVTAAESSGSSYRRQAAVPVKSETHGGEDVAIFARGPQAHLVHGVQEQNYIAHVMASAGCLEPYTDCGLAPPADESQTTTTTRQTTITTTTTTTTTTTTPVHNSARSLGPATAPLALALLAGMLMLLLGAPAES
Serine/threonine-protein phosphatase PP1-alpha catalytic subunit, sequence (P62136 whole entry): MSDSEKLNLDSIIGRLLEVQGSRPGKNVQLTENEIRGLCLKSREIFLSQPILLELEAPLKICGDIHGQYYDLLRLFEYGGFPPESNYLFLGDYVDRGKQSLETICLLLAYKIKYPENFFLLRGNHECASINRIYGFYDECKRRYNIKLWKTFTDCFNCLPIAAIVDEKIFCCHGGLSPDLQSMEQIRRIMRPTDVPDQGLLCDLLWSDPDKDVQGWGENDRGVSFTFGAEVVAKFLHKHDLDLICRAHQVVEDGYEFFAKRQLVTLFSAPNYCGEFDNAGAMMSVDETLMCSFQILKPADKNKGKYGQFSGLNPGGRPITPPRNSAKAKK

CCCOc1cc2c(C#N)c(N3CCCC3)nc(N)c2c(N)n1
IC50 [1]: > 67 µM (not active)
IC50 [2]: 4.32 µM (active)

Oc1ccc(/C=N/Nc2cc(N3CCCC3)nc(N3CCCC3)n2)cc1O
IC50 [3]: 1.51 µM (active)
IC50 [4]: > 100 µM (inactive)
IC50 [5]: > 99 µM (inactive)

Cc1cc2nc3ccc(N(C)C)cc3[s+]c2cc1N [TOLONIUM CHLORIDE]
EC50 [6]: 8.46 µM (inconclusive)
EC50 [7]: > 260 µM (inactive)
AC50 [8]: 77.1 µM (active)
EC50 [9]: 0.491 µM (inconclusive)
IC50 [10]: 5.56 µM (inactive)
IC50 [11]: 1.69 µM (active)
